Test results: patent US20230126447A1, “OCULAR DRUG DEPOT FOR COMPLEMENT-MEDIATED DISORDERS” (priority 2020, published 2023)

Experiment: QWBA tissue distribution of [14C] Compound 1, albino Wistar Han rats (PO)
Format: in vivo
Settings: albino male WH rats, 20 mg/kg PO
Protocol: This study was conducted to determine the tissue distribution of drug-related radioactivity following a single oral (PO) (20 mg/kg) or intravenous (IV) (5 mg/kg) administration of [^14C]
Ten adult male pigmented Long-Evans (LE) rats (Group 1), 1 adult male LE rat (Group 2), and 3 albino Wistar Han (WH) rats (Group 3) received a single oral 20 mg/kg (Groups 1 and 3) or IV 5 mg/kg (Group 2) dose of [^14C] […] The formulation was prepared at a target dose of 5 mg (IV) or 20 mg (PO) […]
The carcasses were frozen in hexane dry-ice and stored at or below −20° C. prior to processing for QWBA. Each carcass was embedded, cut into sagittal sections, and mounted for QWBA. […] The lower limit of quantitation was 0.105 μg equiv/g.

Structure (SMILES): CC(=O)c1nn(CC(=O)N2C[C@H](F)C[C@H]2C(=O)Nc2cccc(Br)n2)c2ccc(-c3cnc(C)nc3)cc12 [Compound 1, (2S,4R)-1-(2-(3-Acetyl-5-(2-methylpyrimidin-5-yl)-1H-indazol-1-yl)acetyl)-N-(6-bromopyridin-2-yl)-4-fluoropyrrolidine-2-carboxamide]
- Concentration of radioactivity at Tmax, non-pigmented skin: 2.98 μg equiv/g
- Concentration of radioactivity at Tmax, uvea of the non-pigmented eye: 1.68 μg equiv/g
- Highest concentration of radioactivity in blood (1 h post-dose): 2.77 μg equiv/g
- Concentration of radioactivity, uvea of the non-pigmented eye (24 h): BQL
- Concentration of radioactivity, non-pigmented skin (168 h): BQL
